# Measurements: patent US20230101963A1, “TREATMENT OF MEDICAL INDICATION” (VALLAURIX TRADING SARL MC, priority 2020, published 2023)
# Experiments:
# hMC2R = hMC2R (Homo sapiens, UniProt Q01718); assay: agonist activity on hMC2R; assay type: biochemical; conditions: versus selective agonist affinity for hMC1R and hMC4R
# [1] = in vivo
# Description: For the purpose of the invention, the BBB permeability refers to the ability of a compound to cross the Blood-Brain-Barrier (BBB) that is intact, i.e. not leaking or otherwise compromised. Permeability can be determined based on presence of central effects (or side-effects). A compound with BBB permeability can show central effects or side-effects.
# BBB permeable is the ability of a compound to pass the BBB that is intact and for instance not leaking or otherwise compromised. Permeability can be determined based on presence of central effects (or side-effects) after peripheral administration of the compound.
# Chain of hMC2R (Q01718 whole entry): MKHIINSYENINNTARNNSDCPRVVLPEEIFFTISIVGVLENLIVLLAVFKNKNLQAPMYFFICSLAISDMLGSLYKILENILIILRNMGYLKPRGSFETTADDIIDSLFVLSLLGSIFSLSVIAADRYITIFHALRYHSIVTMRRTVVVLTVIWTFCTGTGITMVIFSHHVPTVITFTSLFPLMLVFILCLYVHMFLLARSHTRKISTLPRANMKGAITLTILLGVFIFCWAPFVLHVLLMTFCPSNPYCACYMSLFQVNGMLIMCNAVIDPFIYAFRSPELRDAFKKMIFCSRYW
# Chain of hMC2R (Q8TCY5 whole entry partner): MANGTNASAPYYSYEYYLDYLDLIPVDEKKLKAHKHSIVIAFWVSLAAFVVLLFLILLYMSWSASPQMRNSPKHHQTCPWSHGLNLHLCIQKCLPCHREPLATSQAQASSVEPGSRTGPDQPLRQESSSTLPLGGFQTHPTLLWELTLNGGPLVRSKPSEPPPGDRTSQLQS
structure (smiles),measurement,setting,value
"CCCC[C@H](NC(C)=O)C(=O)N[C@H]1CC(=O)NCCCC[C@@H](C(=O)O)NC(=O)[C@H](Cc2c[nH]c3ccccc23)NC(=O)[C@H](CCCN=C(N)N)NC(=O)[C@@H](Cc2ccccc2)NC(=O)[C@H](Cc2cnc[nH]2)NC1=O [bremelanotide, Ac-Nle-cyclo-(Asp-His-D-Phe-Arg-Trp-Lys-OH)]",activity on hMC2R,hMC2R,none
same,"central activity in human, indicating passage of the human blood-brain-barrier",[1],show central activity in human
